Results: patent US20110104301A1, “METHODS OF REDUCING PAIN AND INFLAMMATION” (Georgetown University, A Congressionally Chartered …, priority 2008, published 2011)

Key:
DRG neurons = test: Ca2+ imaging in DRG neurons from wild-type mice; format: cell-based, mouse; details: 1.5 mM, 3 MAC
Description: Ca^2+ Imaging. Neurons were loaded with 1 μM Fluo4-AM (Molecular Probes) for 20 min and washed for a further 10-20 min before recording. The dye was excited at 488±15 nm. Emitted fluorescence was filtered with a 535±25 nm bandpass filter, captured by a SPOT RT digital camera (Diagnostic Instruments) and read into a computer. Analysis was performed offline by using Simple PCI software (Compix Inc.).

mouse TRPA1 = target: T1, mouse TRPA1 (Mus musculus, UniProt Q8BLA8); test: Current-voltage recordings in mTRPA1-expressing HEK293 cells; format: cell-based; details: desflurane 1 mM
T1 construct: expressed in transfected cells; host or cells: HEK293
Description: (§1) A genetic approach was used to identify critical sites in TRPA1 and TRPV1 required for activation by general anesthetics. Drosophila TRPA1 is insensitive to desflurane (at concentrations up to 3 mM). […] Note that dTRPA1 is insensitive to AITC. Next, several chimeric TRP proteins containing dTRPA1 (unresponsive to desflurane) and mTRPA1 were tested. For the dTRPA1-mN chimera, the mouse 720 amino acid N-terminus was exchanged for the drosophila N-terminus. The N-terminal domain contains essential binding sites for AITC, and therefore studying this chimera tests an important role for the N-terminus in anesthetic-sensing. […] The mTRPA1-dTM5 construct was then studied, which is the mouse protein containing the fifth transmembrane domain of the drosophila protein.

mTRPA1-dTM5 = test: Current-voltage recordings of chimera mTRPA1-dTM5; format: cell-based
Description: as §1

TRPM8 = target: T2, TRPM8 (Rattus norvegicus, UniProt Q8R455); test: Whole-cell patch-clamp of TRPM8-expressing HEK293 cells; format: cell-based
T2 construct: expressed in transfected cells; host or cells: HEK 293F
Description: Electrophysiology. […] Whole-cell and single-channel patch-clamp recordings were performed by using an EPC8 amplifier (HEKA Electronics). For whole-cell and excised patch recordings the bath solution contained 140 mMNaCl, 4 mMKCl, 1 mMMgCl2, 1.2 mMCaCl2, 10 mMHepes, 10 mM glucose, pH 7.3. For cell-attached experiments, NaCl was replaced with KCl in the bath solution. […] For neuronal recording NaCl was replaced with K-gluconate (plus 1 mMATP, 0.2 mM GTP). Solutions were applied via a gravity-fed system. […] Voltage-dependent properties were measured as described in Matt and Ahern, J. Physiol. […] The baseline currents under control conditions were subtracted. For cell-attached experiments, peak amplitudes were measured from all-points histograms, and open probability was measured as NPo>750 ms. Defolliculated Xenopus laevis oocytes were injected with ≈10 ng of hTRPA1 (gift of Ardem Patapoutian, The Scripps Research Institute, La Jolla, Calif.).

[1] = tested on: AITC-sensitive DRG neurons; test: Voltage- and current-clamp of DRG sensory neurons; format: cell-based, mouse; details: 0.9 mM, wild-type mice, voltage-clamp, 11 of 35
mice = test: AITC (mustard oil)-induced ear swelling, neurogenic inflammation during anesthesia; format: in vivo, mouse; details: 1.2 MAC
Description: Behavioral Experiments and Neurogenic Inflammation. Animal experiments were performed according to National Institutes of Health and institutional guidelines. […] Nocifensive behavior (nose wiping in sawdust bedding) was recorded for 2 min with a video camera and the duration was subsequently measured by a blinded observer. […] Electromyographic (EMG) activity was recorded via platinum electrodes from the semitendinosus muscle in mice anesthetized with urethane (1.3 g/kg) as described in Ando and Watanabe, Br J. Anaesth. […] The EMG signal was recorded by using a low-pass cutoff frequency of 200 Hz and integrated offline by using a 100-ms time window. […] Ear thickness was recorded by using an engineer's micrometer (Mitutoyo Corp.) before mustard-oil application and thereafter every 15 min for 60 min of anesthesia and 60 min of recovery.

T2 sequence (Q8R455 whole entry): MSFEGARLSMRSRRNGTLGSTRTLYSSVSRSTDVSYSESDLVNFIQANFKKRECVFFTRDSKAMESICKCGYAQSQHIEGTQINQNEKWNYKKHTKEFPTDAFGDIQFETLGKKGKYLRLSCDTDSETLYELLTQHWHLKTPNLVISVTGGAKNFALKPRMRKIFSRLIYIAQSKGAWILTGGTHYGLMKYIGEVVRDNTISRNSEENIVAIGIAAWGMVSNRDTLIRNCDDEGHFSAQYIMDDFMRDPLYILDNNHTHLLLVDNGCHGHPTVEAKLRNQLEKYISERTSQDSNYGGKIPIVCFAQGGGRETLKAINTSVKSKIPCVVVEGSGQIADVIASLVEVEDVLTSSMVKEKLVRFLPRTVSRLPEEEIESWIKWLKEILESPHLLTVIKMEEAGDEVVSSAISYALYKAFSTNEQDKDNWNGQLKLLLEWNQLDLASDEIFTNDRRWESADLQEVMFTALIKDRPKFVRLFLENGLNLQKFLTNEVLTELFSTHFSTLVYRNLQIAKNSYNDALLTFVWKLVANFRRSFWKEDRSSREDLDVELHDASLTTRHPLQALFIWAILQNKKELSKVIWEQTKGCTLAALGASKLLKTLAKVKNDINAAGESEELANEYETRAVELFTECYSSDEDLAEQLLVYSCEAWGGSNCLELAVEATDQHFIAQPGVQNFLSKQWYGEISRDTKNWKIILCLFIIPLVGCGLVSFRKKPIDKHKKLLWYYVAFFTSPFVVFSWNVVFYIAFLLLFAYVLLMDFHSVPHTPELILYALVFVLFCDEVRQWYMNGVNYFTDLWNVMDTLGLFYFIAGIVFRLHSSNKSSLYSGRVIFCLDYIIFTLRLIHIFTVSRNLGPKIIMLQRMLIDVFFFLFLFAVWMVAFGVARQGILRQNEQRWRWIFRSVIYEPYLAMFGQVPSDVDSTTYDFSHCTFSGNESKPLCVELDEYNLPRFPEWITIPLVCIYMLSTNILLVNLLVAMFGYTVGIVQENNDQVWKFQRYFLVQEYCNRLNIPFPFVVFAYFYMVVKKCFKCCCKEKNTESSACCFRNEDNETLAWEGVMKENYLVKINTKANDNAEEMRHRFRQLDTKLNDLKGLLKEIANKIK
T1 sequence (Q8BLA8 whole entry): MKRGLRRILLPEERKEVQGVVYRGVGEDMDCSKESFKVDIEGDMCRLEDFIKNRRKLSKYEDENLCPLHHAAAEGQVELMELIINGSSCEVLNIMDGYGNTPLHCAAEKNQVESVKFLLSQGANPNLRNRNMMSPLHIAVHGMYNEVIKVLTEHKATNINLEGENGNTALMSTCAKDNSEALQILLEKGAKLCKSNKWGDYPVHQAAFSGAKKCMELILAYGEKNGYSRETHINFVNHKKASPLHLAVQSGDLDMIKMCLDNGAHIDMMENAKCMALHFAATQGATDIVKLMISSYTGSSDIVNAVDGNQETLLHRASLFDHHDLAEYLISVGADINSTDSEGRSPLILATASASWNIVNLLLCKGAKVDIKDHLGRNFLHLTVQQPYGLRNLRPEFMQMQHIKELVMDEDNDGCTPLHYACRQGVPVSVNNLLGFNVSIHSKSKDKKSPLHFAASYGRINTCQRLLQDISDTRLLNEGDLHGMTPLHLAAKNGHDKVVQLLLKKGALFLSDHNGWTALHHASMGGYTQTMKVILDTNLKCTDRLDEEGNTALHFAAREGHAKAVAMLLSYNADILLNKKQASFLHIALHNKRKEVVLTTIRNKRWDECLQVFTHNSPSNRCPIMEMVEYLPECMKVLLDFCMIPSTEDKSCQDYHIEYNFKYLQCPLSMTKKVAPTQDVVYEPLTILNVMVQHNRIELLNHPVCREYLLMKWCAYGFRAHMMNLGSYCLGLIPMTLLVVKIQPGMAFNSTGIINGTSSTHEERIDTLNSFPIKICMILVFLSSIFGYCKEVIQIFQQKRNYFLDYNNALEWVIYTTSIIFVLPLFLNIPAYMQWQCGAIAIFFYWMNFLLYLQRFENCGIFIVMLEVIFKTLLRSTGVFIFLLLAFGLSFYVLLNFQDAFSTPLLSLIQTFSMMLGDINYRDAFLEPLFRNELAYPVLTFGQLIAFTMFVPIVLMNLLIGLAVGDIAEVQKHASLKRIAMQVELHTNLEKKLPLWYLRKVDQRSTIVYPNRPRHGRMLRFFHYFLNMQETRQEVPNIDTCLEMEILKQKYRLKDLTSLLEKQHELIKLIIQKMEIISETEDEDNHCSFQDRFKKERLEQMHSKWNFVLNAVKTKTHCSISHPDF

## FC(F)OC(F)C(F)(F)F (centres unmarked) [desflurane]
DRG neurons
  Neurons with evoked Ca2+ increase: 36 of 123
Mouse TRPA1
  Activation of mouse TRPA1: activates
mTRPA1-dTM5
  Sensitivity of mTRPA1-dTM5 chimera: abolished

## FC(F)OC(Cl)C(F)(F)F (centres unmarked) [isoflurane]
TRPM8; 0.9 mM (2.9 MAC)
  Activation of TRPM8 currents: failed to activate
TRPM8; isoflurane 0.9 mM, octanol 1 mM
  Effects at TRPM8 at holding potential −50 mV: negligible effects
[1]
  Neurons with evoked currents: 31%
mice; AITC 0.6%, 15-120 min, n=7, P<0.01
  AITC-induced ear swelling during anesthesia, compared with sevoflurane: significantly greater swelling
mice; at 90 and 120 min
  Swelling in the unpainted ear: small increase in swelling
